Experimental data: patent publication US12194048B2, “Use of pyrrolopyridine derivatives for preventing or treating inflammatory diseases” (VORONOI CO., LTD., priority 2020, dated 2025)

Columns and labels:
[1] = system: 2,4,6-trinitrobenzenesulfonic acid (TNBS) induced colitis mouse model; assay: TNBS induced colitis mouse model; type: in vivo, male BALB/c mice; details: 60 mpk orally once daily
Protocol: In the present experiment, male BALB/c mice (8 weeks old) were used. The experimental animals were subjected to dietary restriction for one day prior to treating with TNBS. Bowel inflammation was induced by administering TNBS (TNBS solution, 1 mg in 0.1 mL 50% ethanol) by submucosal injection in the colon. For the control animals in which inflammation was not induced, only 0.9% NaCl solution without TNBS was administered by submucosal injection in the colon.
The comparative compound, cyclosporine A, was orally administered once daily, and the TNF-α blocker (Enbrel®) was administered intraperitoneally once daily.
During the test, changes in body weight, occult bleeding in stool, and stool consistently were examined every day, and serum was collected on day 5 of the experiment. Bowel tissue was collected at the termination of the experiment to measure the weight of the bowel tissue, degree of polymorphonuclear leukocyte (PMN) deposition and degree of myeloperoxidase (MPO) expression.

[2] = system: house dust mite-induced atopic dermatitis model; assay: House dust mite-induced atopic dermatitis model; type: in vivo, NC/Nga mice
Protocol: The backs and ears of NC/Nga mice aged 8 weeks were shaved, and 0.1 g house dust mite cream was applied once every three days for a total of seven times to induce atopic dermatitis. For the negative control group where dermatitis was not induced, a cream not including house dust mites was applied. […] To the comparative control group, the JAK1 inhibitor upadacitinib was orally administered at 6 mg/kg twice daily for 14 days.
After inducing atopic dermatitis using house dust mite cream, symptoms as well as the state of the skin of the cars and backs were scored twice weekly starting from the initial date of administration; the measurements were added and the means are shown in FIG. 9. Furthermore, on the date of termination of the experiment, skin tissue and serum were collected to observe the level of expression of inflammatory cytokines in the tissue and the level of expression of IgE in serum using ELISA analysis; the results are shown in FIG. 10.

[3] = biological target: T1, LRRK2(G2019S) (Homo sapiens, UniProt Q5S007, G2019S); assay: scanMAX Kinase analysis panel (DiscoverX); type: binding; details: drug 1 μM in DMSO; from % control
T1 construct: purchased DiscoverX scanMAX Kinase analysis panel
Excerpt: (§1) [(Example compound−positive control)/(negative control−positive control)×100]

[4] = biological target: T2, STK33 (Homo sapiens, UniProt Q9BYT3); assay: scanMAX Kinase analysis panel (DiscoverX); type: binding; details: drug 1 μM in DMSO; from % control
T2 construct: purchased DiscoverX scanMAX Kinase analysis panel
Excerpt: as §1

[5] = biological target: T3, JNK3 (Homo sapiens, UniProt P53779); assay: scanMAX Kinase analysis panel (DiscoverX); type: binding; details: drug 1 μM in DMSO; from % control
T3 construct: purchased DiscoverX
Excerpt: as §1

[6] = biological target: T4, CAMKK2 (Homo sapiens, UniProt Q96RR4); assay: scanMAX Kinase analysis panel (DiscoverX); type: binding; details: drug 1 μM in DMSO; from % control
T4 construct: purchased DiscoverX scanMAX Kinase analysis panel
Excerpt: as §1

[7] = biological target: T5, CHEK2 (Homo sapiens, UniProt O96017); assay: scanMAX Kinase analysis panel (DiscoverX); type: binding; details: drug 1 μM in DMSO; from % control
T5 construct: purchased DiscoverX scanMAX Kinase analysis panel
Excerpt: as §1

[8] = biological target: T6, HUNK (Homo sapiens, UniProt P57058); assay: scanMAX Kinase analysis panel (DiscoverX); type: binding; details: drug 1 μM in DMSO; from % control
T6 construct: purchased DiscoverX
Excerpt: as §1

[9] = biological target: T7, LTK (Homo sapiens, UniProt P29376); assay: scanMAX Kinase analysis panel (DiscoverX); type: binding; details: drug 1 μM in DMSO; from % control
T7 construct: purchased DiscoverX scanMAX Kinase analysis panel
Excerpt: as §1

[10] = biological target: T8, CSNK1A1 (Homo sapiens, UniProt P48729); assay: scanMAX Kinase analysis panel (DiscoverX); type: binding; details: drug 1 μM in DMSO; from % control
T8 construct: purchased DiscoverX scanMAX Kinase analysis panel
Excerpt: as §1

[11] = biological target: T9, PAK2 (Homo sapiens, UniProt Q13177); assay: scanMAX Kinase analysis panel (DiscoverX); type: binding; details: drug 1 μM in DMSO; from % control
T9 construct: purchased DiscoverX scanMAX Kinase analysis panel
Excerpt: as §1

[12] = biological target: T10, ALK(L1196M) (Homo sapiens, UniProt Q9UM73, L1196M); assay: scanMAX Kinase analysis panel (DiscoverX); type: binding; details: drug 1 μM in DMSO; from % control
T10 construct: purchased DiscoverX scanMAX Kinase analysis panel
Excerpt: as §1

[13] = biological target: T11, MYLK (Homo sapiens, UniProt Q15746); assay: scanMAX Kinase analysis panel (DiscoverX); type: binding; details: drug 1 μM in DMSO; from % control
T11 construct: purchased DiscoverX scanMAX Kinase analysis panel
Excerpt: as §1

[14] = biological target: T12, STK39 (Homo sapiens, UniProt Q9UEW8); assay: scanMAX Kinase analysis panel (DiscoverX); type: binding; details: drug 1 μM in DMSO; from % control
T12 construct: purchased DiscoverX
Excerpt: as §1

[15] = biological target: T13, JNK2 (Homo sapiens, UniProt P45984); assay: scanMAX Kinase analysis panel (DiscoverX); type: binding; details: drug 1 μM in DMSO; from % control
T13 construct: purchased DiscoverX
Excerpt: as §1

[16] = biological target: T14, LRRK2 (Homo sapiens, UniProt Q5S007); assay: scanMAX Kinase analysis panel (DiscoverX); type: binding; details: drug 1 μM in DMSO; from % control
T14 construct: purchased DiscoverX
Excerpt: as §1

[17] = biological target: T15, MAPKAPK2 (Homo sapiens, UniProt P49137); assay: scanMAX Kinase analysis panel (DiscoverX); type: binding; details: drug 1 μM in DMSO; from % control
T15 construct: purchased DiscoverX
Excerpt: as §1

[18] = biological target: T16, PLK4 (Homo sapiens, UniProt O00444); assay: scanMAX Kinase analysis panel (DiscoverX); type: binding; details: drug 1 μM in DMSO; from % control
T16 construct: purchased DiscoverX
Excerpt: as §1

[19] = biological target: T17, INSR (Homo sapiens, UniProt P06213); assay: scanMAX Kinase analysis panel (DiscoverX); type: binding; details: drug 1 μM in DMSO; from % control
T17 construct: purchased DiscoverX
Excerpt: as §1

[20] = biological target: T18, JNK1 (Homo sapiens, UniProt P45983); assay: scanMAX Kinase analysis panel (DiscoverX); type: binding; details: drug 1 μM in DMSO; from % control
T18 construct: purchased DiscoverX scanMAX Kinase analysis panel
Excerpt: as §1

[21] = biological target: T19, PHKG1 (Homo sapiens, UniProt Q16816); assay: scanMAX Kinase analysis panel (DiscoverX); type: binding; details: drug 1 μM in DMSO; from % control
T19 construct: purchased DiscoverX scanMAX Kinase analysis panel
Excerpt: as §1

[22] = biological target: T20, ALK(C1156Y) (Homo sapiens, UniProt Q9UM73, C1156Y); assay: scanMAX Kinase analysis panel (DiscoverX); type: binding; details: drug 1 μM in DMSO; from % control
T20 construct: purchased DiscoverX scanMAX Kinase analysis panel
Excerpt: as §1

[23] = biological target: T21, ABL1-nonphosphorylated (Homo sapiens, UniProt P00519); assay: scanMAX Kinase analysis panel (DiscoverX); type: binding; details: drug 1 μM in DMSO; from % control
T21 construct: purchased DiscoverX scanMAX Kinase analysis panel
Excerpt: as §1

[24] = biological target: T22, ALK (Homo sapiens, UniProt Q9UM73); assay: scanMAX Kinase analysis panel (DiscoverX); type: binding; details: drug 1 μM in DMSO; from % control
T22 construct: purchased DiscoverX scanMAX Kinase analysis panel
Excerpt: as §1

[25] = biological target: T23, ERK5 (Homo sapiens, UniProt Q13164); assay: scanMAX Kinase analysis panel (DiscoverX); type: binding; details: drug 1 μM in DMSO; from % control
T23 construct: purchased DiscoverX
Excerpt: as §1

[26] = biological target: T24, JAK1(JH2domain-pseudokinase) (Homo sapiens, UniProt P23458); assay: scanMAX Kinase analysis panel (DiscoverX); type: binding; details: drug 1 μM in DMSO; from % control
T24 construct: JAK1 (JH2domain-pseudokinase); purchased DiscoverX
Excerpt: as §1

[27] = biological target: T25, GAK (Homo sapiens, UniProt O14976); assay: scanMAX Kinase analysis panel (DiscoverX); type: binding; details: drug 1 μM in DMSO; from % control
T25 construct: purchased DiscoverX scanMAX Kinase analysis panel
Excerpt: as §1

[28] = biological target: T26, CAMK2D (Homo sapiens, UniProt Q13557); assay: scanMAX Kinase analysis panel (DiscoverX); type: binding; details: drug 1 μM in DMSO; from % control
T26 construct: purchased DiscoverX scanMAX Kinase analysis panel
Excerpt: as §1

[29] = biological target: T27, CSNK1D (Homo sapiens, UniProt P48730); assay: scanMAX Kinase analysis panel (DiscoverX); type: binding
T27 construct: purchased DiscoverX scanMAX Kinase analysis panel
Excerpt: as §1

[30] = biological target: T28, PHKG2 (Homo sapiens, UniProt P15735); assay: scanMAX Kinase analysis panel (DiscoverX); type: binding; details: drug 1 μM in DMSO; from % control
T28 construct: purchased DiscoverX scanMAX Kinase analysis panel
Excerpt: as §1

T25 sequence (O14976 whole entry): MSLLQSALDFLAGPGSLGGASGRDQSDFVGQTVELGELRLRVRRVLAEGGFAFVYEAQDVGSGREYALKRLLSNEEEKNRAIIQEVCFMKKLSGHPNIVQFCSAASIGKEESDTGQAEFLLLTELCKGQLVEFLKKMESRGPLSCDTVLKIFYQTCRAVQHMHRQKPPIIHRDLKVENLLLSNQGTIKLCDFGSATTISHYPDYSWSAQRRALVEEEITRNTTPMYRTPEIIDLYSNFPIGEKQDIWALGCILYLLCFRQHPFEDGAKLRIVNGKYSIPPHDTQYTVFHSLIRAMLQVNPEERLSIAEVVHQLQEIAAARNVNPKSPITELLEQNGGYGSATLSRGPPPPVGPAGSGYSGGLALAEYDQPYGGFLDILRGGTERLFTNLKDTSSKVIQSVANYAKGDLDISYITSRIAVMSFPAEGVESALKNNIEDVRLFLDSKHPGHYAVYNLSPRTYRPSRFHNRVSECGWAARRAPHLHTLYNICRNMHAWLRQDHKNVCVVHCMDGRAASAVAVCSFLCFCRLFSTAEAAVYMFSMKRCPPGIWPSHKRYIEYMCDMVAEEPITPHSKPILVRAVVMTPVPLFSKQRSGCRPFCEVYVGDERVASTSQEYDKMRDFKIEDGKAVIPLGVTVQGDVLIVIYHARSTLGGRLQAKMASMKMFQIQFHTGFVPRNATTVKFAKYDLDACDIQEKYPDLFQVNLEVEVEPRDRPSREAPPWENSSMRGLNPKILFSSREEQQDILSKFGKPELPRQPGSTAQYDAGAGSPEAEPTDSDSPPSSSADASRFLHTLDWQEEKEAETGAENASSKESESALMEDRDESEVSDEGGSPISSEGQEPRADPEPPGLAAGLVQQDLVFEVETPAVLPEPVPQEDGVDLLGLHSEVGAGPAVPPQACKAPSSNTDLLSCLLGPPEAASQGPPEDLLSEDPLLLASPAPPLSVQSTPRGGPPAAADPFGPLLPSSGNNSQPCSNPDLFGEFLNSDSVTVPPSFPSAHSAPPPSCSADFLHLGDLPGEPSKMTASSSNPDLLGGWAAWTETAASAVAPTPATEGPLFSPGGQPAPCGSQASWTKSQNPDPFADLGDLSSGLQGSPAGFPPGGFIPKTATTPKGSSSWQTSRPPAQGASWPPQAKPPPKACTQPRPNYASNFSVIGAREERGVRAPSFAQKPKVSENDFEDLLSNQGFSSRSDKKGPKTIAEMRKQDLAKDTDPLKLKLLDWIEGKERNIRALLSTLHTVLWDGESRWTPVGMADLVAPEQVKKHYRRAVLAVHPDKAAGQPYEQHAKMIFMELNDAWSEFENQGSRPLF
T8 sequence (P48729 whole entry): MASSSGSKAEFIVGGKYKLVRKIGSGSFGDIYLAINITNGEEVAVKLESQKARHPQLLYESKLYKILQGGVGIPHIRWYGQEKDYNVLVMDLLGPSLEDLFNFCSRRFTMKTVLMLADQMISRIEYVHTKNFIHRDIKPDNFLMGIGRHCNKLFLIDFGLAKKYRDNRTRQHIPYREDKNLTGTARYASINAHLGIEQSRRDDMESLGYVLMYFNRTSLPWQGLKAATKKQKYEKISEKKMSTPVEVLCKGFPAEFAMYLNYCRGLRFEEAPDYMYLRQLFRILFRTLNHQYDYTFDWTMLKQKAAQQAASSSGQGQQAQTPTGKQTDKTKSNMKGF
T6 sequence (P57058 whole entry): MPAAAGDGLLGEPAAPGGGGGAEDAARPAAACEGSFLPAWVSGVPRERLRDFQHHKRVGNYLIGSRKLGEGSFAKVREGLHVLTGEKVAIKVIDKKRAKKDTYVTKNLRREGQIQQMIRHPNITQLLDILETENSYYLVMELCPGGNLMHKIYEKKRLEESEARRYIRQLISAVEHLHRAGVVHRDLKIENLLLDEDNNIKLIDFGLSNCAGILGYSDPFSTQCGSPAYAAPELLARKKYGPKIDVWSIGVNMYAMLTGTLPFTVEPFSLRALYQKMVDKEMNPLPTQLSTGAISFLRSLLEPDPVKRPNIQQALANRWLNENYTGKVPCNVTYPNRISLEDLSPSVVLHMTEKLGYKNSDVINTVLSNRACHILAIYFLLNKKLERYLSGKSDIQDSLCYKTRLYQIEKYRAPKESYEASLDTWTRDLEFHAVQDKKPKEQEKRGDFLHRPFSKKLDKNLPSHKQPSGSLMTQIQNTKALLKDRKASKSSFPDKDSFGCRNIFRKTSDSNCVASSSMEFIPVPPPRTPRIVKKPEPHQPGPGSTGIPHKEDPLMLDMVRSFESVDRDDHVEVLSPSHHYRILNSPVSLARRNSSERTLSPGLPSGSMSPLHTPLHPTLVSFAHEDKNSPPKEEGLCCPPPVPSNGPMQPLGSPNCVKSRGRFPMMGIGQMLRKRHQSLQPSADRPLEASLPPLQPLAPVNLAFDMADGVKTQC
T16 sequence (O00444 whole entry): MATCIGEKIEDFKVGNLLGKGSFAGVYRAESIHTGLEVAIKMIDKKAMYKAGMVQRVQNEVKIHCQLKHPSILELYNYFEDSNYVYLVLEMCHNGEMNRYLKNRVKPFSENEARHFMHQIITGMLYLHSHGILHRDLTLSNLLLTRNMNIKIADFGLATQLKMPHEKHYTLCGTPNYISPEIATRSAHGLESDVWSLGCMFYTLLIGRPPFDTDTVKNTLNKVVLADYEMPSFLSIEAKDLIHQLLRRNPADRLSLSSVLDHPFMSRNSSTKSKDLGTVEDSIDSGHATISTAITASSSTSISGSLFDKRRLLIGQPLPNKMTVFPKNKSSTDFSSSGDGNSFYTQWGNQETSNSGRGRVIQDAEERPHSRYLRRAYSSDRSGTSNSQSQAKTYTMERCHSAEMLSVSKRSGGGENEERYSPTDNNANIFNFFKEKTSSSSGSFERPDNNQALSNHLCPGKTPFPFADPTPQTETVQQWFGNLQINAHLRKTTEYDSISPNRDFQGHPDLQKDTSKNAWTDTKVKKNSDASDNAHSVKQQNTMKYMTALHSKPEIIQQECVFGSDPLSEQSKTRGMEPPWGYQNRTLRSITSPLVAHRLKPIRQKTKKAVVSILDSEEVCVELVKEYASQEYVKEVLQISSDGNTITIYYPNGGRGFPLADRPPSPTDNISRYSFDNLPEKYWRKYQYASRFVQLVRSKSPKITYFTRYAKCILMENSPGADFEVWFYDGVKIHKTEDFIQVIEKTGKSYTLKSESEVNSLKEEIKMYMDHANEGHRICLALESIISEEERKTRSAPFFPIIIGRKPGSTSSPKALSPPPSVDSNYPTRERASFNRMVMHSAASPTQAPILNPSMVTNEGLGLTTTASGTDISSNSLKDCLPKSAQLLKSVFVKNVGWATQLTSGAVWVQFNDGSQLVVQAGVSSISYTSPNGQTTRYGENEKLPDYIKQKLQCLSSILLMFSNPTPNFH
T17 sequence (P06213 28-1382): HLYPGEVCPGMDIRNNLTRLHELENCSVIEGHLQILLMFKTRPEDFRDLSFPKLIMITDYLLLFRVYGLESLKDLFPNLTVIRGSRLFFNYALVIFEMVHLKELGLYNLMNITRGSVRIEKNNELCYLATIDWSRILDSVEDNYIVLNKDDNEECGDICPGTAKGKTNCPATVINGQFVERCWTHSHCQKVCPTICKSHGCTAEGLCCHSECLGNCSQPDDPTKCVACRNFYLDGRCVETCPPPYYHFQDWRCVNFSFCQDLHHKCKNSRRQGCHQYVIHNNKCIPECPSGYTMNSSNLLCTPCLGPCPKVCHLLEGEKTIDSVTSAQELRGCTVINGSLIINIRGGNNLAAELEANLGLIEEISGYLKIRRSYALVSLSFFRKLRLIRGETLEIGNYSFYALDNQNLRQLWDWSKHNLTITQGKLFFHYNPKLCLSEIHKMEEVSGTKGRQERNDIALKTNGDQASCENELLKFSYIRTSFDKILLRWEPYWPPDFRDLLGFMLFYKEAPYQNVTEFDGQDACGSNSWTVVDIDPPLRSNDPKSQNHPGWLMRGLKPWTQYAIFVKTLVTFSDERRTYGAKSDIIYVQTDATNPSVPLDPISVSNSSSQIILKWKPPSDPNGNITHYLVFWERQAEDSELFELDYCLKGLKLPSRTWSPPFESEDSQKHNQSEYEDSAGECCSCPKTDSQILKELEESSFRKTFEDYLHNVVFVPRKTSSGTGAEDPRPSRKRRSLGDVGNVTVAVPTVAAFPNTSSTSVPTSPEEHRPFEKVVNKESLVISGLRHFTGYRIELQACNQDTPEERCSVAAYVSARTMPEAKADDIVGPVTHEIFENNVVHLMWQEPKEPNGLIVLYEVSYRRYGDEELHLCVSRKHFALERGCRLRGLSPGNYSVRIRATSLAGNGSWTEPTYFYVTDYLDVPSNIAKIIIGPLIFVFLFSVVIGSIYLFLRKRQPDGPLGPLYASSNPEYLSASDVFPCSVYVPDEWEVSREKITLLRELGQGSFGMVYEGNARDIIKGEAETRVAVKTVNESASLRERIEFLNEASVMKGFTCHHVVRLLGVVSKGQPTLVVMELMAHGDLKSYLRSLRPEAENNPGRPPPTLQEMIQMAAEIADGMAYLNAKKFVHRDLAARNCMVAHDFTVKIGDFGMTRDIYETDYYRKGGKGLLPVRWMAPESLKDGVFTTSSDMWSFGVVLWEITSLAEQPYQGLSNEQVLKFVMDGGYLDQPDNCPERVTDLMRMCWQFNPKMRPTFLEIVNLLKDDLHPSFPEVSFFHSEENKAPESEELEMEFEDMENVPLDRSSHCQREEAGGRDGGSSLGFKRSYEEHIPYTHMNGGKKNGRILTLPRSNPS
T24 sequence (P23458 583-855 limits assumed): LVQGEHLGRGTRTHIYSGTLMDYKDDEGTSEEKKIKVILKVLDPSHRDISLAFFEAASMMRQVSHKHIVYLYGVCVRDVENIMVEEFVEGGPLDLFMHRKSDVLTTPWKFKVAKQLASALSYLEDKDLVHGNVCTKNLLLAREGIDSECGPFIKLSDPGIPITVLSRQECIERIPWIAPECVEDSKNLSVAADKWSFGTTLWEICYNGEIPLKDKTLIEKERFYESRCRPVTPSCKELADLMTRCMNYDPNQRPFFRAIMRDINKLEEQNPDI

CCNc1cc(Nc2ccc(C(=O)N3CCC(N4CCOCC4)CC3)cc2OC)nc2[nH]cc(C(F)(F)F)c12 [Compound 1, (4-((4-(ethylamino)-3-(trifluoromethyl)-1H-pyrrolo[2,3-b]pyridine-6-yl)amino)-3-methoxyphenyl)(4-morpholinopiperidine-1-yl)methanone]
weight of bowel tissue ([1]; FIG. 6): weight reduction
thickness of lamina propria ([1]; H&E, FIG. 5): decreased in thickness
MPO levels ([1]; bowel tissue, vs control not treated, FIG. 6): lower
dermatitis on the back and ears ([2]; 10, 20 and 30 mpk orally twice daily for 14 days, FIG. 9): alleviated in a concentration-dependent manner
IgE expression in serum ([2]; 10, 20 and 30 mpk, ELISA, FIG. 10): concentration-dependent reduction
alleviating dermatitis ([2]; 30 mpk orally twice daily for 14 days): most effective
IgE expression in serum ([2]; 30 mpk, ELISA, FIG. 10): statistically significant reduction
inflammatory cytokine expression in the back tissue ([2]; 30 mpk, against the control group, ELISA, FIG. 10): statistically significant reduction
alleviating atopic dermatitis, compared with upadacitinib control group ([2]; upadacitinib 6 mg/kg orally twice daily for 14 days): more effective
inhibition at 1 µM [3]: ≥ 59%
inhibition at 1 µM [4]: ≥ 59%
inhibition at 1 µM [5]: 40 to 59%
inhibition at 1 µM [6]: 40 to 59%
inhibition at 1 µM [7]: 40 to 59%
inhibition at 1 µM [8]: 40 to 59%
inhibition at 1 µM [9]: ≥ 59%
inhibition at 1 µM [10]: 40 to 59%
inhibition at 1 µM [11]: ≥ 59%
inhibition at 1 µM [12]: ≥ 59%
inhibition at 1 µM [13]: ≥ 59%
inhibition at 1 µM [14]: 40 to 59%
inhibition at 1 µM [15]: 40 to 59%
inhibition at 1 µM [16]: 40 to 59%
inhibition at 1 µM [17]: 40 to 59%
inhibition at 1 µM [18]: 40 to 59%
inhibition at 1 µM [19]: 40 to 59%
inhibition at 1 µM [20]: ≥ 59%
inhibition at 1 µM [21]: ≥ 59%
inhibition at 1 µM [22]: ≥ 59%
inhibition at 1 µM [23]: 40 to 59%
inhibition at 1 µM [24]: ≥ 59%
inhibition at 1 µM [25]: 40 to 59%
inhibition at 1 µM [26]: 40 to 59%
inhibition at 1 µM [27]: ≥ 59%
inhibition at 1 µM [28]: 40 to 59%
inhibition at 1 µM [29]: ≥ 59%
inhibition at 1 µM [30]: ≥ 59%
